Experimental data as given in paper PMC4257560, “Synthesis and Functional Characterization of Substituted Isoquinolinones as MT2-Selective Melatoninergic Ligands” (PLoS ONE, 2014).
“And” between values parts separate entries of the source, which are not always exact repeats. Identical values can stand only once. “Also recorded” adds a separate entry of the source. Like-named read-outs stand apart in the source and are kept apart here.

Columns and labels:
[1] = biological target: T1, MT2 (Homo sapiens, UniProt P49286); assay: Intracellular Ca2+ mobilization (FLIPR) in MT2-CHO cells co-expressing 16z25; type: cell-based; design: expressed in transfected cells; conditions: for Emax: percentage of melatonin (MT)-mediated stimulation of Ca2+ signal, read-out: MT2 %Resp ±SEM, Ca2+ signal
T1 sequence (P49286 1-362): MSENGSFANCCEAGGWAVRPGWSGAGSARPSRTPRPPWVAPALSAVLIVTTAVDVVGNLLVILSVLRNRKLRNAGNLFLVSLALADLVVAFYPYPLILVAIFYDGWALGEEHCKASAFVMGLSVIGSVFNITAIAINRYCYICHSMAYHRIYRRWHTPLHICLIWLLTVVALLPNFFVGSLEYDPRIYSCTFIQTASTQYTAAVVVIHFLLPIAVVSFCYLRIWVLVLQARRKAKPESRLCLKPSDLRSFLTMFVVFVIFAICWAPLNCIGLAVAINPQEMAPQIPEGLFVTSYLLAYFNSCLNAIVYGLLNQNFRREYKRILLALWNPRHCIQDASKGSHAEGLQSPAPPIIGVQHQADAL
Experimental: (§1) Tested compounds in different concentrations were diluted in assay buffer in 5× of the final desired concentrations in a V-bottomed microplate, and both the cell and compound plates were put into the fluorometric imaging plate reader FLIPR^TETRA (Molecular Devices, Sunnyvale, CA). […] The peak of the time course of fluorescence changes was expressed in relative fluorescence units (RFU). Dose response curves were constructed by non-linear regression using GraphPad Prism 3.

[2] = biological target: T2, MT1 (Homo sapiens, UniProt P48039); conditions: for MT1 pIC50±SEM: 4°C 60 min, mean ± SEM of 3–5 trials, NSB = no specific binding for up to 30 µM
T2 sequence (P48039 whole entry): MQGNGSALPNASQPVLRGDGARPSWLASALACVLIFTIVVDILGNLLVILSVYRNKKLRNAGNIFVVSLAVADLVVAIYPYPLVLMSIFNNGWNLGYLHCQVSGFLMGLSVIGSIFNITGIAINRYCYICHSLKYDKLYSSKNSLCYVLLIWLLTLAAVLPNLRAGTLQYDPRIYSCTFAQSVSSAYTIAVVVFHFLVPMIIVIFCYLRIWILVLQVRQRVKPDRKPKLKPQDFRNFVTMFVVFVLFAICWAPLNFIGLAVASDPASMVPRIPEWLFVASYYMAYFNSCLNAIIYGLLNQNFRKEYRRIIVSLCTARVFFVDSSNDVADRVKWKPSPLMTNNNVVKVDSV
Experimental: (§5) Competitive receptor binding characteristics of melatonin and the 15 tested compounds towards human MT1 and MT2 stably expressed in Chinese hamster ovary (CHO) cells were determined using intact cell preparation pre-incubated with 1 nM [^3H]melatonin.
(§6) Individual melatonin receptor subtype (either MT1 or MT2) was stably co-expressed with a G protein chimera 16z25 in Chinese hamster ovary (CHO) cells, hereafter denoted as CHO-hMT1 and CHO-hMT2, respectively. […] Single cell-derived colonies of the stable lines with sufficiently high receptor density and robust responses in the fluorometric assay (as described below) were isolated from the pool of transfected cell. Usage of these clonal lines was limited to 15 passages to prevent degradation of signal detection.
(§7) Competitive binding assays were performed as described [26]. Cells were suspended in binding buffer (50 mM Tris, 2 mM MgCl2, 1 mM EGTA, pH 7.4) in the density of 1.5×10^5 cell/ml. 1 nM [^3H]melatonin and increasing concentrations of a tested compound was included. Cells were incubated at 4°C for 60 min with intermittent agitation and the reaction was stopped by rapid filtration through GF/C filters pre-soaked in 10 mM Tris, pH 7.4 and washed with 1 ml of prechilled binding buffer. Retained radioactivity was measured with Wallac 1450 Microbeta Jet scintillation counter. Competition curves were drawn as one-site competition nonlinear regression model using GraphPad Prism 3.03 to the data which were means ± SEM of 3–4 independent experiments performed in duplicates. In every assay, melatonin was included as standard reference with highly reproducible Ki values, which were calculated using the Cheng-Prusoff equation.

[3] = biological target: T1, MT2; assay: biochemical; conditions: for Ki: MT2 Ki, calculated from mean pIC50 (Cheng-Prusoff), 1 nM [3H]melatonin, intact CHO cells; for Emax: read-out: MT2 %Resp±SEM (percentage of melatonin-mediated displacement of radioligand binding)
Experimental: as §5, §6, §7

[4] = biological target: T2, MT1; assay: Inhibition of forskolin-stimulated cAMP accumulation in MT1-CHO cells; type: cell-based; design: expressed in transfected cells; conditions: for inhibition of cAMP levels in MT1-CHO cells (in words): forskolin-stimulated; for MT1 %Inhmax ±SEM: maximal percentage inhibition of the forskolin-elevated cAMP level, MT1-CHO; for MT1 IC50, inhibition of cAMP production: MT1-CHO cells, 50 µM forskolin, calculated from mean pIC50, NSR = no significant response for up to 10 µM
Experimental: (§2) Both MT1 and MT2 are classified as Gi-coupled receptors with their activation leading to inhibition of intracellular cAMP production. The ability of the tested compounds to activate the endogenously expressed Gi-mediated inhibition of cAMP production was therefore examined.
(§3) All the responses were expressed as the percentage of that induced by forskolin alone (as 100%).
(§4) 2×10^5 cells were seeded in each well of 12-well plates and grown for overnight. Each well was labeled with 1 ml of [^3H]adenine (1 µCi/ml) in F-12K medium containing 1% FBS (vol/vol) for overnight. The labeling media were then replaced by 1 ml of 20 mM HEPES-buffered F-12K containing 1 mM isobutylmethylxanthine (IBMX) and the tested compounds at desired concentrations, and incubated at 37°C for 30 min. The reaction was stopped by aspiration and adding 1 ml prechilled 5% trichloroacetic acid (w/v) with 1 mM ATP, and stored at 4°C for 30 min. [^3H]cAMP was extracted from the pool of labeled adenosine nucleotides by sequential ion-exchange chromatography as previously described. The radioactivity of labeled cAMP and total labeled nucleotide fractions separated by chromatography were estimated by scintillation counting. Inhibition curves were constructed by non-linear regression using GraphPad Prism 3.

[5] = biological target: T1, MT2; assay: Inhibition of forskolin-stimulated cAMP accumulation in MT2-CHO cells; type: cell-based; design: expressed in transfected cells; conditions: for IC50: MT2-CHO cells, 50 µM forskolin, calculated from mean pIC50, read-out: MT2 IC50, inhibition of cAMP production; for MT2 %Inhmax ±SEM: maximal percentage inhibition of the forskolin-elevated cAMP level, MT2-CHO
Experimental: as §2, §3, §4

[6] = biological target: T1, MT2; conditions: for displacement of pre-incubated [3H]melatonin at MT2 (in words): competitive binding, intact CHO cells
Experimental: as §5, §6, §7

[7] = biological target: T2, MT1; assay: Intracellular Ca2+ mobilization (FLIPR) in MT1-CHO cells co-expressing 16z25; type: cell-based; design: expressed in transfected cells; conditions: for Ca2+ mobilization activity at MT1 (in words): MT1-CHO cells, maximal concentration tested 10 µM
Experimental: as §1

[8] = biological target: T2, MT1; assay: biochemical; conditions: for Emax: read-out: MT1 %Resp±SEM (percentage of melatonin-mediated displacement of radioligand binding)
Experimental: as §5, §6, §7

[9] = MT2-CHO cells, FLIPR, calculated from mean pEC50, NSR = no significant response for up to 30 µM, read-out: MT2 EC50, Ca2+ mobilization
[10] = 1 nM [3H]melatonin, intact CHO cells
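For MT1 %Resp±SEM (percentage of melatonin-mediated displacement of radioligand binding) in this document: competitive radioligand displacement on intact CHO cells stably co-expressing human MT1 together with the G protein chimera 16z25, using rising concentrations of each compound.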
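For MT1 pIC50±SEM in this document: competitive radioligand displacement on intact CHO cells stably co-expressing human MT1 together with the G protein chimera 16z25, using rising concentrations of each compound.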
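For Selectivity, ratio Ki(MT1)/Ki(MT2) in this document: competition binding on intact CHO cells stably co-expressing human MT2 with G protein chimera 16z25, displacing [3H]melatonin at 4°C over 60 min, melatonin run as reference.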
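For displacement of pre-incubated [3H]melatonin at MT2 (in words) in this document: competition binding on intact CHO cells stably co-expressing human MT2 with G protein chimera 16z25, displacing [3H]melatonin at 4°C over 60 min, melatonin run as reference.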
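For selectivity toward MT2 over MT1 in this document: competition binding on intact CHO cells stably co-expressing human MT2 with G protein chimera 16z25, displacing [3H]melatonin at 4°C over 60 min, melatonin run as reference.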

Row | SMILES | EC50 [1, 9] | Emax ([1]; MT2) | MT1 pIC50±SEM [2, 10] | IC50 [3] | Ki [3] | Emax [3] | melting point | IC50 [5] | MT2 %Inhmax ±SEM [5] | MT1 IC50, inhibition of cAMP production [4] | Ca2+ mobilization activity at MT1 (in words) [7] | IC50 [8] | Emax [8] | Selectivity, ratio Ki(MT1)/Ki(MT2) [6] | further results
1 | COc1cc2c(=O)n(C)ccc2cc1OCc1ccccc1 [7a, 6-Benzyloxy-7-methoxy-2-methylisoquinolin-1(2H)-one] | 0.163 µM | 84 ± 20% | NSB ^c | 2.82 µM | 0.852 µM | 78 ± 7% | 102 to 104 °C |  |  |  |  |  |  |  | concentration triggering Ca2+ signals exclusively in MT2-CHO cells ([1]; from concentration response curves, Figure 4): around 1 µM
2 | COc1ccccc1COc1cc2ccn(C)c(=O)c2cc1OC [7d, 7-Methoxy-6-(2-methoxy-benzyloxy)-2-methylisoquinolin-1(2H)-one] | 0.0257 µM | 85 ± 22% | NSB | 2.24 µM | 0.674 µM | 79 ± 5% | 150 to 152 °C | 0.247 µM | 59±5% |  |  |  |  |  | reduction of ability to trigger Ca2+ signal on moving methoxy from meta to ortho (vs 7b) ([1]; MT2-CHO): 2 orders of magnitude; inhibition of cAMP levels in MT1-CHO cells (in words) [4]: observable inhibition; MT1 %Inhmax ±SEM [4]: 33±13%; IC50 ([4]; read-out: MT1 IC50, inhibition of cAMP production): 0.396 µM
3 | COc1cc2c(=O)n(C)ccc2cc1OCc1cc(C)cc(C)c1 [7g, 6-(3,5-Dimethyl-benzyloxy)-7-methoxy-2-methylisoquinolin-1(2H)-one] | 0.11 µM | 83 ± 6% | NSB | 3.47 µM | 1.05 µM | 86 ± 2% |  |  |  |  |  |  |  |  | 
4 | COc1cccc(COc2cc3c(=O)n(C)ccc3cc2OC)c1 [14b, 6-Methoxy-7-(3-methoxy-benzyloxy)-2-methylisoquinolin-1(2H)-one] | 0.0489 µM | 96 ± 16% | NSB | 1 µM | 0.302 µM | 92 ± 3% |  | 0.0694 µM | 71±6% | NSR | could not produce any activity |  |  |  | fold less potent than 7b (EC50, Ca2+ signal, MT2) ([1]; relative to 7b, MT2-CHO): > 160 fold; displacement of pre-incubated [3H]melatonin at MT2 (in words) [6]: completely displaced
5 | COc1cc(COc2cc3c(=O)n(C)ccc3cc2OC)cc(OC)c1 [14c, 7-(3,5-Dimethoxy-benzyloxy)-6-methoxy-2-methylisoquinolin-1(2H)-one] | 0.228 µM | 71 ± 17% | NSB | 18.2 µM | 5.49 µM | 94 ± 11% |  | 0.326 µM | 58±3% | NSR | could not produce any activity |  |  |  | Ca2+ mobilization activity at MT2 (in words) ([1]; MT2-CHO cells, FLIPR): partial efficacy; fold less potent than 7c (Ca2+ signal, MT2) ([1]; relative to 7c, MT2-CHO): 11 fold
6 | COc1cccc(COc2c(OC)ccc3c(=O)n(C)ccc23)c1 [15b, 6-Methoxy-5-(3-methoxy-benzyloxy)-2-methyl-2H-isoquinolin-1-one] |  | 89 ± 20% |  | 0.0055 µM | 0.0017 µM and 0.00166 µM | 85 ± 8% |  | 0.00081 µM | 61±4% | NSR | could not produce any activity; also recorded: totally inactive | 13.2 µM | 71 ± 13% | 1800 | EC50 ([1]; MT2-CHO cells, FLIPR, mean ± SEM of 3–5 trials, read-out: MT2 pEC50 ±SEM, Ca2+ mobilization (converted)): 0.000145 µM; Ki ([2]; read-out: MT1 Ki, calculated from mean pIC50 (Cheng-Prusoff), 1 nM [3H]melatonin, intact CHO cells): 2.98 µM; inhibition of cAMP levels in MT1-CHO cells (in words) [4]: completely inactive
7 | COc1ccc2[nH]cc(CCNC(C)=O)c2c1 [MT, N-acetyl-5-methoxytryptamine, reference compound] |  |  |  |  |  |  |  |  |  |  |  |  |  |  | MT1 %Resp±SEM (percentage of melatonin-mediated displacement of radioligand binding) ([2]; relative to melatonin (MT)-mediated displacement): 95±2%; MT1 %Inhmax ±SEM [4]: 59±2%; MT1 %Inhmax ±SEM ([4]; listed as Melatonin): 60–70%; MT1 %Resp ±SEM, Ca2+ signal [7]: 100±26%
8 | COc1cc2ccn(C)c(=O)c2cc1O [compound 12, 7-Hydroxy-6-methoxy-2-methylisoquinolin-1(2H)-one] |  |  |  |  |  |  |  |  |  |  |  |  |  |  | Emax at 10 µM ([1]; MT2, at 10 µM, partial activation, data not shown, read-out: maximal response, Ca2+ mobilization, MT2): 53%; Emax at 10 µM ([7]; at 10 µM, partial activation, data not shown, read-out: maximal response, Ca2+ mobilization, MT1): 36%

Continued, in another order:

Row | EC50 [1, 9] | Emax ([1]; MT2) | MT1 pIC50±SEM [2, 10] | IC50 [3] | Ki [3] | Emax [3] | melting point | IC50 [5] | MT2 %Inhmax ±SEM [5] | MT1 IC50, inhibition of cAMP production [4] | Ca2+ mobilization activity at MT1 (in words) [7] | IC50 [8] | Emax [8] | Selectivity, ratio Ki(MT1)/Ki(MT2) [6] | SMILES | further results
9 | 0.215 µM | 70 ± 9% |  | 1.2 µM | 0.362 µM | 85 ± 8% | 125 to 127 °C |  |  |  |  | 9.12 µM | 84 ± 10% | 5.72 | COc1ccc2c(=O)n(C)ccc2c1OCc1ccccc1 [15a, 5-Benzyloxyl-6-methoxy-2-methylisoquinolin-1(2H)-one] | Ki [8]: 2.07 µM
10 | 0.00408 µM | 85 ± 19% |  | 0.141 µM | 0.042 µM | 94 ± 13% | 85 to 86 °C | 0.0406 µM | 64±3% | NSR | could not produce any activity | 9.33 µM | 63 ± 4% | 50.7 | COc1cc(COc2c(OC)ccc3c(=O)n(C)ccc23)cc(OC)c1 [15c, 5-(3,5-Dimethoxy-benzyloxy)-6-methoxy-2-methylisoquinolin-1(2H)-one] | fold more potent than 7c (Ca2+ signal, MT2) ([1]; relative to 7c, MT2-CHO): 5 fold; Ki [8]: 2.13 µM; selectivity toward MT2 over MT1 ([6]; binding, Ki ratio): 51 fold; displacement of pre-incubated [3H]melatonin at MT2 (in words) [6]: almost complete displacement
11 | 0.128 µM | 40 ± 17% |  | 9.55 µM | 2.89 µM | 74 ± 11% |  |  |  |  |  | 3.39 µM | 34 ± 5% | 0.27 | COc1ccc2c(=O)n(C)ccc2c1OCc1ccc(C)cc1 [15d, 6-Methoxy-2-methyl-5-(4-methyl-benzyloxy)-isoquinolin-1(2H)-one] | Ki [8]: 0.77 µM
